Laboratory results taken from patent US20210220379A1, “PERITONEAL SODIUM-GLUCOSE TRANSPORTER (SGLT) INHIBITORS FOR IMPROVEMENT OF PERITONEAL DIALYSIS” (MOR RESEARCH APPLICATIONS LTD., priority 2017, published 2021).

Assays:
[1] = tested on: kidney glucose reabsorption; experiment: Glycosuria by urine stick in healthy CD-1 mice after an SGLT inhibitor; assay type: in vivo; settings: phlorizin 20 mg/kg single SC injection
Experimental: (§1) Dapagliflozin (0.1 mg/kg) was given to the mice by oral gavage. Control mice were not given any of the SGLT blockers. Tail blood glucose was tested by glucose test meter immediately before (time 0) and during 2 hours after injection. Glucose levels in the urine were tested by standard urine sticks (Multistix® 10 SG, Siemens Healthcare Diagnostics, Tarrytown, N.Y.).

[2] = tested on: peritoneal glucose transport; experiment: Blood glucose in healthy CD-1 mice after intraperitoneal glucose-containing PD fluid; assay type: in vivo; settings: inhibitor given 15 min before intraperitoneal PD fluid, results not shown
Experimental: as §1

[3] = tested on: peritoneal glucose transport; experiment: Renal failure mice: SC phlorizin followed by intraperitoneal PDF; assay type: in vivo; settings: renal failure CD-1 mice, phlorizin 20 mg/kg SC
Experimental: (§2) Renal failure in mice and rats was induced by bilateral ureteral ligation, based on the procedure described, for example, in Kim et al. (2015) (Am J Physiol Renal Physio., 308(2):F131-139) and references cited therein. Briefly, mice were anesthetized with an intraperitoneal injection of a cocktail containing ketamine (200 mg/kg body weight) and xylazine (16 mg/kg body weight). After exposure of both the left and right kidneys through flank incision, right and left ureters were ligated completely near the kidney pelvis using a 5-0 silk tie.
A standard commercial PD fluid (Dianeal® 1.5% dextrose), diluted 1:4 in saline (comprising 0.375% glucose) was used. Blood glucose levels were measured by glucometer at indicated time points. Area under the curve (AUC) was calculated for all mice and used to compare the two groups. Concentrations of glucose in the peritoneum fluid measured 30 min after administration of PDF are depicted in FIG. 3C.

[4] = tested on: peritoneal glucose transport; experiment: Renal failure mice: SC phlorizin followed by sodium-free PDF; assay type: in vivo; settings: renal failure CD-1 mice; phlorizin 20 mg/kg SC; sodium free PDF 2 ml, 0.375% glucose
Experimental: as §2
Dependency of glucose transport on SGLT inhibition during peritoneal dialysis with PDF not containing sodium was assessed.

[5] = tested on: peritoneal glucose transport; experiment: Uremic mice: phlorizin-containing peritoneal dialysis fluid (PPDF) intraperitoneally; assay type: in vivo; settings: uremic CD-1 mice; 2 ml Dianeal 1.5% dextrose with 0.6 μM phlorizin (PPDF) i.p.; compared with separate applications of phlorizin and PDF; P<0.01 vs phlorizin-free PDF
Experimental: as §2
Blood glucose levels were measured by glucometer at indicated time points, and area under the curve (AUC) was calculated for all mice and used to compare the two groups (FIG. 5C; P<0.01).

[6] = tested on: glucose absorption from peritoneal fluid; experiment: Uremic rat peritoneal dialysis model: PDF with or without phlorizin; assay type: in vivo, Sprague Dawley (SD) rats; settings: uremic SD rats, 120 min dwell
Experimental: as §2
Animal experiments were approved by local Animal Care Committee. Male Sprague Dawley (SD) rats 200-250 gr, we purchased from Envigo RMS (Jerusalem, Israel), allowed to acclimatize for 1 week before the beginning of the experiment. Animals were anesthetized by intramuscular administration of a mixture of ketamine (200 mg/kg body wt) and xylazine (16 mg/kg body wt). Renal failure was induced by bilateral ureteral ligation as described in Materials and Methods. […] After anesthesia temporary catheters were introduced into the peritoneal cavity.
To PDF of both group 100 μl of fluorescein isothiocyanate-dextran was added, average molecular weight 2,000,000 (FITC Dextran −2000, 100 μg/ml, Sigma-Aldrich®, Israel). Dialysate and tail blood samples were obtained during 120 min dwell, every 15 min. Blood glucose level was measured by standard glucometer, dialysate glucose was measured in the chemistry laboratory of the Soroka Medical Center. Dilution of FITC-dextran was detected by florescence of dialysis fluid samples measured with a 96-well fluorimeter (SpectraMax® Paradigm® plate reader, Molecular Devices) at an emission wavelength of 535 nm and an excitation wavelength of 485 nm. Concentrations of unknown samples were calculated from a standard curve by extrapolation in a linear regression model.

Structure (SMILES): O=C(CCc1ccc(O)cc1)c1c(O)cc(O)cc1O[C@@H]1O[C@H](CO)[C@@H](O)[C@H](O)[C@H]1O [phlorizin, phloretin-2′-β-D-glucopyranoside]
- Duration of glycosuria [1]: more than 2 hours
- Glucose levels in urine (glycosuria score, urine stick) ([1]; dapagliflozin 0.1 mg/kg oral gavage): significant glycosuria
- Blood glucose levels vs control group [2]: significantly lower
- Blood glucose levels and AUC vs saline control ([3]; 2 ml Dianeal 1.5% dextrose diluted 1:4 (0.375% glucose) i.p., P<0.05): mitigated hyperglycemia
- Glucose levels in peritoneum fluid vs control ([3]; 30 minutes from instillation of PDF): significantly elevated
- Blood glucose levels vs control group [4]: no differences
- Reduction of blood glucose levels (AUC) [5]: significantly more effective
- Blood glucose levels vs control group ([6]; 20 ml PDF (1.5% Dianeal diluted 1:4) with phlorizin 100 μg/ml, P<0.01): Significantly lower
- FITC-dextran concentration in PDF (dilution) vs control ([6]; PDF with phlorizin 100 μg/ml, P<0.05): significant diluted
- PDF (dialysate) glucose level vs control group ([6]; PDF with phlorizin 100 μg/ml, p<0.001): significant declined
